Several values for one entry are separate records, joined by “and”; a condition that tells them apart may be missing. Equal values may be shown once. Marks after values point to notes of the source that are not given here.
Assays:
[1] = test system: SQ20B (radiation-resistant human squamous cell carcinoma of the larynx) cell line; assay: in vitro clonogenic assay, drug combined with ionizing radiation, SQ20B; assay type: cell-based; conditions: for C20 drug concentration corresponding to 20% cell survival / C80 drug concentration corresponding to 80% cell survival: drug alone, 2 h treatment; for Sensitization Ratio SR, Values for each culture: simultaneous schedule (2 h drug, 10 min irradiation at start of 2nd hour), SR<1 = radiosensitisation; for Sensitization Ratio SR, Mean of duplicates: simultaneous schedule
Protocol: (§1) The remarkable radiosensitisation effect exerted by the α-bromo- or α-chloro-acryloyl-distamycin derivatives, in particular the compounds of formula (I), is shown according to in vitro clonogenic assays on SQ20B (radiation-resistant human squamous cell carcinoma of the larynx) and A431 (human vulval carcinoma) cell lines. In this respect, two different schedule treatments were evaluated either comprising simultaneous exposure to the tested compound of formula (I) and to radiation, or sequential exposure to both these cytotoxic agents in any order, that is drug/radiation or radiation/drug (see details below). As control, the effect of cisplatin in combination with radiotherapy has been tested in the same operative conditions.
(§2) To define a Sensitization Ratio (SR), the clonogenic survival of cells being treated with a combination of irradiation and drug exposure (SX+D) was compared with the product of survival for drug alone (SD) and irradiation alone (SX), as follows SR=SX+D/SD*SX
(§3) From the above, it is clear to the skilled person that if both radiation and drug exerted their cytotoxic effect independently from each other, SR values would be close to 1 whereas, on the contrary, a radiosensitisation effect indicating a synergism between ionizing radiation and drug is characterized by SR values lower than 1 (SR<1).
(§4) For both compounds Compound A and cisplatin, exposures were simultaneous to ionizing radiation in both SQ20B and A431 cell lines. The schedule consisted of 2 h drug treatment with a period of irradiation (10 minutes) starting at the beginning of the 2nd hour of treatment.
(§5) Four data sets for each of Compound A and cisplatin, in each cell line were obtained (see table 1) comprising duplicates of two different drug concentration chosen to yield cytotoxicity values corresponding to 80% (C80) and 20% (C20) survival for treatment with the drug alone. […]

[2] = test system: A431 (human vulval carcinoma) cell line; assay: in vitro clonogenic assay, drug combined with ionizing radiation, A431; assay type: cell-based; conditions: for C20 drug concentration corresponding to 20% cell survival / C80 drug concentration corresponding to 80% cell survival: drug alone, 2 h treatment; for Sensitization Ratio SR, Values for each culture: simultaneous schedule (2 h drug, 10 min irradiation at start of 2nd hour), SR<1 = radiosensitisation; for Sensitization Ratio SR, Mean of duplicates: simultaneous schedule
Protocol: as §1, §2, §3, §4, §5

[3] = drug at C20 (Compound A 350 ng/ml, cisplatin 6.5 μM)
[4] = drug at C80 (Compound A 50 ng/ml, cisplatin 0.4 μM)
[5] = drug at C20 (Compound A 90 ng/ml, cisplatin 5.0 μM)
[6] = drug at C80 (Compound A 20 ng/ml, cisplatin 0.8 μM)

Compound | C20 drug concentration corresponding to 20% cell survival [1] | C80 drug concentration corresponding to 80% cell survival [1] | Sensitization Ratio SR, Values for each culture [1, 3] | Sensitization Ratio SR, Values for each culture [1, 4] | Sensitization Ratio SR, Mean of duplicates [1, 3] | Sensitization Ratio SR, Mean of duplicates [1, 4] | C20 drug concentration corresponding to 20% cell survival [2] | C80 drug concentration corresponding to 80% cell survival [2] | Sensitization Ratio SR, Values for each culture [2, 5] | Sensitization Ratio SR, Values for each culture [2, 6] | Sensitization Ratio SR, Mean of duplicates [2, 5] | Sensitization Ratio SR, Mean of duplicates [2, 6] | Sensitization Ratio SR / radiosensitisation effect ([1]; combination with radiotherapy, summary over concentrations) | Sensitization Ratio SR, Values for each culture ([1]; drug at C20 (Compound A 350 ng/ml, cisplatin 6.5 μM), hydrochloride) | Sensitization Ratio SR, Values for each culture ([1]; drug at C80 (Compound A 50 ng/ml, cisplatin 0.4 μM), hydrochloride) | Sensitization Ratio SR, Values for each culture ([2]; drug at C20 (Compound A 90 ng/ml, cisplatin 5.0 μM), hydrochloride) | Sensitization Ratio SR, Values for each culture ([2]; drug at C80 (Compound A 20 ng/ml, cisplatin 0.8 μM), hydrochloride)
N.N.[Cl][Pt][Cl] [cisplatin, reference compound] | 6.5 (C20) μM | 0.4 (C80) μM | 0.72 and 0.81 | 0.78 and 0.82 | C20 0.77 | C80 0.80 | 5.0 (C20) μM | 0.8 (C80) μM | 1.08 and 0.86 | 1.02 and 0.84 | C20 0.97 | C80 0.96 | – | – | – | – | –
C=C(Br)C(=O)Nc1cc(C(=O)Nc2cc(C(=O)Nc3cc(C(=O)Nc4cc(C(=O)NCCNC(=N)N)n(C)c4)n(C)c3)n(C)c2)n(C)c1.Cl [Compound A, N-[5-[[[5-[[[2-[(animoiminomethyl)amino]ethyl]amino]carbonyl]-1-methyl-1H-pyrrol-3-yl]amino]carbonyl]-1-methyl-1H-pyrrol-3-yl]-4-[[[4-[(2-bromo-1-oxo-2-propenyl)amino]-1-methyl-1H-pyrrol-2-yl]carbonyl]amino]-1-methyl-1H-pyrrole-2-carboxamide hydrochloride] | 350 (C20)^(d) ng/ml | 50 (C80)^(c) ng/ml | – | – | C20 0.50 | C80 0.85 | 90 (C20) ng/ml | 20 (C80) ng/ml | – | – | C20 0.37 | C80 0.62 | lower than 1 | 0.55 and 0.46 | 0.84 and 0.85 | 0.33 and 0.40 | 0.65 and 0.59

From patent US20110166077A9, “COMBINED THERAPY AGAINST TUMORS COMPRISING SUBSTITUTED ACRYLOYL DISTAMYCIN DERIVATIVES AND RADIOTHERAPY” (Pharmacia Italia S.p.A., priority 2002, published 2011)
